Results taken from US20240199649A1 (Biosplice Therapeutics, Inc., priority 2022, published 2024).

Target: recombinant DYRK1A kinase (Homo sapiens (Human), UniProt Q13627)
Assay: DYRK1A kinase assay (Ser/Thr 18 peptide Z-lyte FRET assay)
Type: biochemical
Conditions: DYRK1A 0.25 μg/mL, ATP 15 μM, Ser/Thr peptide 18 4 μM; one hour at room temperature; 11-point dose-response, duplicate
Summary of the method: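 Z-lyte FRET assay on Ser/Thr 18 peptide, kinase activity read as coumarin/fluorescein emission ratio; compounds incubated 1 h at room temperature, then development reagent 1 h, in duplicate. Phosphorylated and unphosphorylated peptide served as controls; IC50 by non-linear regression of dose-response curves.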

SMILES: CC(=O)N1CC[C@H](Nc2nc(N)c3c(-c4ccc5nc(C)n(CCF)c5n4)ccn3n2)[C@H](F)C1 [Compound 996, 1-((3R,4S)-4-((4-Amino-5-(3-(2-fluoroethyl)-2-methyl-3H-imidazo[4,5-b]pyridin-5-yl)pyrrolo[2,1-f][1,2,4]triazin-2-yl)amino)-3-fluoropiperidin-1-yl)ethan-1-one]
- IC50: 1.8 nM

SMILES: Cc1nc2ccc(-c3ccn4nc(N[C@H]5CCN(C6COC6)C[C@H]5F)nc(N)c34)nc2n1CCF [Compound 997, N^2-((3R,4S)-3-Fluoro-1-(oxetan-3-yl)piperidin-4-yl)-5-(3-(2-fluoroethyl)-2-methyl-3H-imidazo[4,5-b]pyridn-5-yl)pyrrolo[2,1-f][1,2,4]triazine-2,4-diamine]
- IC50: 1.7 nM

SMILES: CC(=O)N1CC[C@@H](Nc2nc(N)c3c(-c4ccc5nc(C)n(CCF)c5n4)ccn3n2)C(F)(F)C1 [Compound 998, (R)-1-(4-((4-Amino-5-(3-(2-fluoroethyl)-2-methyl-3H-imidazo[4,5-b]pyridin-5-yl)pyrrolo[2,1-f][1,2,4]triazin-2-yl)amino)-3,3-difluoropiperidin-1-yl)ethan-1-one]
- IC50: 9.2 nM

SMILES: Cc1nc2ccc(-c3ccn4nc(N[C@@H]5CCN(C6COC6)CC5(F)F)nc(N)c34)nc2n1CCF [Compound 999, (R)—N^2-(3,3-Difluoro-1-(oxetan-3-yl)piperidin-4-yl)-5-(3-(2-fluoroethyl)-2-methyl-3H-imidazo[4,5-b]pyridin-5-yl)pyrrolo[2,1-f][1,2,4]triazine-2,4-diamine]
- IC50: 1.8 nM

SMILES: Nc1nc(N[C@H]2CC[C@@H](OC(F)F)CC2)nn2ccc(-c3ccc4nnn(CC(F)F)c4n3)c12 [Compound 1000, 5-(3-(2,2-Difluoroethyl)-3H-[1,2,3]triazolo[4,5-b]pyridin-5-yl)-N^2-(cis-4-(difluoromethoxy)cyclohexyl)pyrrolo[2,1-f][1,2,4]triazine-2,4-diamine]
- IC50: 5.1 nM

SMILES: CNc1nc(NC2CCC(F)(F)CC2)nn2ccc(-c3ccc4ncn(CCF)c4n3)c12 [Compound 1001, N^2-(4,4-Difluorocyclohexyl)-5-(3-(2-fluoroethyl)-3H-imidazo[4,5-b]pyridin-5-yl)-N^4-methylpyrrolo[2,1-f][1,2,4]triazine-2,4-diamine]
- IC50: 2.2 nM

SMILES: CNc1nc(N[C@H]2CCN(C(C)=O)C[C@H]2F)nn2ccc(-c3ccc4ncn(CCF)c4n3)c12 [Compound 1002, 1-((3R,4S)-3-Fluoro-4-((5-(3-(2-fluoroethyl)-3H-imidazo[4,5-b]pyridin-5-yl)-4-(methylamino)pyrrolo[2,1-f][1,2,4]triazin-2-yl)amino)piperidin-1-yl)ethan-1-one]
- IC50: 1.1 nM

SMILES: CNc1nc(N[C@H]2CCN(C3COC3)C[C@H]2F)nn2ccc(-c3ccc4ncn(CCF)c4n3)c12 [Compound 1003, N^2-((3R,4S)-3-Fluoro-1-(oxetan-3-yl)piperidin-4-yl)-5-(3-(2-fluoroethyl)-3H-imidazo[4,5-b]pyridin-5-yl)-N4-methylpyrrolo[2,1-f][1,2,4]triazine-2,4-diamine]
- IC50: 1.1 nM

SMILES: CNc1nc(N[C@@H]2CCN(C)CC2(F)F)nn2ccc(-c3ccc4ncn(CCF)c4n3)c12 [Compound 1004, (R)—N^2-(3,3-Difluoro-1-methylpiperidin-4-yl)-5-(3-(2-fluoroethyl)-3H-imidazo[4,5-b]pyridin-5-yl)-N^4-methylpyrrolo[2,1-f][1,2,4]triazine-2,4-diamine]
- IC50: 1.1 nM

SMILES: CNc1nc(N[C@@H]2CCN(C3COC3)CC2(F)F)nn2ccc(-c3ccc4ncn(CCF)c4n3)c12 [Compound 1005, (R)—N^2-(3,3-Difluoro-1-(oxetan-3-yl)piperidin-4-yl)-5-(3-(2-fluoroethyl)-3H-imidazo[4,5-b]pyridin-5-yl)-N^4-methylpyrrolo[2,1-f][1,2,4]triazine-2,4-diamine]
- IC50: 0.9 nM

SMILES: CNc1nc(NC2CCC(F)(F)CC2)nn2ccc(-c3ccc4ncn(CC(F)F)c4n3)c12 [Compound 1007, N^2-(4,4-Difluorocyclohexyl)-5-(3-(2,2-difluoroethyl)-3H-imidazo[4,5-b]pyridin-5-yl)-N^4-methylpyrrolo[2,1-f][1,2,4]triazine-2,4-diamine]
- IC50: 4.1 nM

SMILES: CNc1nc(N[C@H]2CC[C@@](C)(O)CC2)nn2ccc(-c3ccc4ncn(CC(F)F)c4n3)c12 [Compound 1008, (1r,4r)-4-((5-(3-(2,2-Difluoroethyl)-3H-imidazo[4,5-b]pyridin-5-yl)-4-(methylamino)pyrrolo[2,1-f][1,2,4]triazin-2-yl)amino)-1-methylcyclohexan-1-ol]
- IC50: 0.4 nM

SMILES: CNc1nc(N[C@H]2CCN(C3COC3)C[C@H]2F)nn2ccc(-c3ccc4ncn(CC(F)F)c4n3)c12 [Compound 1009, 5-(3-(2,2-Difluoroethyl)-3H-imidazo[4,5-b]pyridin-5-yl)-N^2-((3R,4S)-3-fluoro-1-(oxetan-3-yl)piperidin-4-yl)-N4-methylpyrrolo[2,1-f][1,2,4]triazine-2,4-diamine]
- IC50: 2 nM

SMILES: CNc1nc(N[C@@H]2CCN(C(C)=O)CC2(F)F)nn2ccc(-c3ccc4ncn(CC(F)F)c4n3)c12 [Compound 1010, (R)-1-(4-((5-(3-(2,2-Difluoroethyl)-3H-imidazo[4,5-b]pyridin-5-yl)-4-(methylamino)pyrrolo[2,1-f][1,2,4]triazin-2-yl)amino)-3,3-difluoropiperidin-1-yl)ethan-1-one]
- IC50: 0.5 nM

SMILES: CNc1nc(N[C@@H]2CCN(C)CC2(F)F)nn2ccc(-c3ccc4ncn(CC(F)F)c4n3)c12 [Compound 1011, (R)—N^2-(3,3-Difluoro-1-methylpiperidin-4-yl)-5-(3-(2,2-difluoroethyl)-3H-imidazo[4,5-b]pyridin-5-yl)-N^4-methylpyrrolo[2,1-f][1,2,4]triazine-2,4-diamine]
- IC50: 1.4 nM

SMILES: CNc1nc(N[C@H]2CCN(C(C)=O)C[C@H]2F)nn2ccc(-c3ccc4ncn(CC(F)F)c4n3)c12 [Compound 1012, 1-((3R,4S)-4-((5-(3-(2,2-Difluoroethyl)-3H-imidazo[4,5-b]pyridin-5-yl)-4-(methylamino)pyrrolo[2,1-f][1,2,4]triazin-2-yl)amino)-3-fluoropiperidin-1-yl)ethan-1-one]
- IC50: 0.5 nM

SMILES: CNc1nc(N[C@@H]2CCN(C3COC3)CC2(F)F)nn2ccc(-c3ccc4ncn(CC(F)F)c4n3)c12 [Compound 1013, (R)—N^2-(3,3-Difluoro-1-(oxetan-3-yl)piperidin-4-yl)-5-(3-(2,2-difluoroethyl)-3H-imidazo[4,5-b]pyridin-5-yl)-N4-methylpyrrolo[2,1-f][1,2,4]triazine-2,4-diamine]
- IC50: 0.9 nM

SMILES: CNc1nc(NC2CCC(F)(F)CC2)nn2ccc(-c3ccc4ncn(CC(F)(F)F)c4n3)c12 [Compound 1014, N^2-(4,4-Difluorocyclohexyl)-N^4-methyl-5-(3-(2,2,2-trifluoroethyl)-3H-imidazo[4,5-b]pyridin-5-yl)pyrrolo[2,1-f][1,2,4]triazine-2,4-diamine]
- IC50: 10.1 nM

SMILES: CNc1nc(N[C@H]2CCN(C(C)=O)C[C@H]2F)nn2ccc(-c3ccc4ncn(CC(F)(F)F)c4n3)c12 [Compound 1015, 1-((3R,4S)-3-Fluoro-4-((4-(methylamino)-5-(3-(2,2,2-trifluoroethyl)-3H-imidazo[4,5-b]pyridin-5-yl)pyrrolo[2,1-f][1,2,4]triazin-2-yl)amino)piperidin-1-yl)ethan-1-one]
- IC50: 1.4 nM

SMILES: CNc1nc(N[C@H]2CCN(C3COC3)C[C@H]2F)nn2ccc(-c3ccc4ncn(CC(F)(F)F)c4n3)c12 [Compound 1016, N^2-((3R,4S)-3-Fluoro-1-(oxetan-3-yl)piperidin-4-yl)-N^4-methyl-5-(3-(2,2,2-trifluoroethyl)-3H-imidazo[4,5-b]pyridin-5-yl)pyrrolo[2,1-f][1,2,4]triazine-2,4-diamine]
- IC50: 1.5 nM

SMILES: CNc1nc(N[C@@H]2CCN(C)CC2(F)F)nn2ccc(-c3ccc4ncn(CC(F)(F)F)c4n3)c12 [Compound 1017, (R)—N^2-(3,3-Difluoro-1-methylpiperidin-4-yl)-N^4-methyl-5-(3-(2,2,2-trifluoroethyl)-3H-imidazo[4,5-b]pyridin-5-yl)pyrrolo[2,1-f][1,2,4]triazine-2,4-diamine]
- IC50: 1.7 nM

SMILES: CNc1nc(N[C@@H]2CCN(C(C)=O)CC2(F)F)nn2ccc(-c3ccc4ncn(CC(F)(F)F)c4n3)c12 [Compound 1018, (R)-1-(3,3-Difluoro-4-((4-(methylamino)-5-(3-(2,2,2-trifluoroethyl)-3H-imidazo[4,5-b]pyridin-5-yl)pyrrolo[2,1-f][1,2,4]triazin-2-yl)amino)piperidin-1-yl)ethan-1-one]
- IC50: 1.6 nM

SMILES: CNc1nc(N[C@@H]2CCN(C3COC3)CC2(F)F)nn2ccc(-c3ccc4ncn(CC(F)(F)F)c4n3)c12 [Compound 1019, (R)—N^2-(3,3-Difluoro-1-(oxetan-3-yl)piperidin-4-yl)-N^4-methyl-5-(3-(2,2,2-trifluoroethyl)-3H-imidazo[4,5-b]pyridin-5-yl)pyrrolo[2,1-f][1,2,4]triazine-2,4-diamine]
- IC50: 1.7 nM

SMILES: CNc1nc(N[C@H]2CCN(C(C)=O)C[C@H]2F)nn2ccc(-c3ccc4nc(C)n(CCF)c4n3)c12 [Compound 1020, 1-((3R,4S)-3-Fluoro-4-((5-(3-(2-fluoroethyl)-2-methyl-3H-imidazo[4,5-b]pyridin-5-yl)-4-(methylamino)pyrrolo[2,1-f][1,2,4]triazin-2-yl)amino)piperidin-1-yl)ethan-1-one]
- IC50: 2.1 nM

SMILES: CNc1nc(N[C@@H]2CCN(C(C)=O)CC2(F)F)nn2ccc(-c3ccc4nc(C)n(CCF)c4n3)c12 [Compound 1021, (R)-1-(3,3-Difluoro-4-((5-(3-(2-fluoroethyl)-2-methyl-3H-imidazo[4,5-b]pyridin-5-yl)-4-(methylamino)pyrrolo[2,1-f][1,2,4]triazin-2-yl)amino)piperidin-1-yl)ethan-1-one]
- IC50: 1.3 nM

SMILES: CNc1nc(N[C@H]2CCN(C(C)=O)C[C@H]2F)nn2ccc(-c3ccc4nc(C)n(CC(F)F)c4n3)c12 [Compound 1022, 1-((3R,4S)-4-((5-(3-(2,2-Difluoroethyl)-2-methyl-3H-imidazo[4,5-b]pyridin-5-yl)-4-(methylamino)pyrrolo[2,1-f][1,2,4]triazin-2-yl)amino)-3-fluoropiperidin-1-yl)ethan-1-one]
- IC50: 0.4 nM
